Converted amounts (≈) assume the structure as drawn. Like-named read-outs stand apart in the source and are kept apart here.
Legend:
[1] = test system: methicillin-sensitive Staphylococcus aureus; experiment: MIC by broth micro-dilution (CLSI), methicillin-sensitive S. aureus; assay type: cell-based; details: MSSA S. aureus ATCC29213
[2] = test system: carbapenemase producing K. pneumoniae; experiment: MIC by broth micro-dilution (CLSI), carbapenemase producing K. pneumoniae; assay type: cell-based, Klebsiella pneumoniae
[3] = test system: carbapenem sensitive Pseudomonas aeruginosa; experiment: MIC by broth micro-dilution (CLSI), carbapenem sensitive P. aeruginosa; assay type: cell-based
[4] = test system: carbapenem sensitive Escherichia coli; experiment: MIC by broth micro-dilution (CLSI), carbapenem sensitive E. coli; assay type: cell-based
[5] = Staphylococcus aureus, ATCC 29213 / MSSA, read-out: MIC
[6] = Klebsiella pneumoniae, ATCCBAA1705, KPC-2 K. pneumoniae ATCC BAA-1705, read-out: MIC
[7] = Pseudomonas aeruginosa, ATCC27853, Meropenem susceptible P. aeruginosa ATCC27853, read-out: MIC
[8] = Escherichia coli, ATCC25922, ESBL −ve E. coli ATCC25922, read-out: MIC

MIC [1, 5] | MIC [2, 6] | MIC [3, 7] | MIC [4, 8] | MIC [1] | MIC ([2]; KPC-2 K. pneumoniae ATCC BAA-1705) | MIC ([3]; Meropenem susceptible P. aeruginosa ATCC27853) | MIC ([4]; ESBL −ve E. coli ATCC25922) | SMILES
4 µg/mL (≈ 7.3 µM) | 2 µg/mL (≈ 3.65 µM) | 16 µg/mL (≈ 29.2 µM) | 0.5 µg/mL (≈ 0.913 µM) |  |  |  |  | C[C@@H](NC(=O)Cn1cnnn1)[C@H]1C(=O)N2C(C(=O)O)=C(S[C@@H]3CN[C@H](C(=O)N4CCC[C@@H]4CN)C3)[C@H](C)[C@H]12 [Example 465, (4R,5S,6R)-6-((R)-1-(2-(1H-tetrazol-1-yl)acetamido)ethyl)-3-((3S,5S)-5-((R)-2-(aminomethyl)pyrrolidine-1-carbonyl)pyrrolidin-3-ylthio)-4-methyl-7-oxo-1-azabicyclo[3.2.0]hept-2-ene-2-carboxylic acid]
4 µg/mL (≈ 7.1 µM) | 2 µg/mL (≈ 3.55 µM) | 4 µg/mL (≈ 7.1 µM) | 0.5 µg/mL (≈ 0.887 µM) |  |  |  |  | C[C@@H](NC(=O)Cn1cnnn1)[C@H]1C(=O)N2C(C(=O)O)=C(S[C@@H]3CN[C@H](C(=O)N4C[C@@H](O)C[C@H]4CN)C3)[C@H](C)[C@H]12 [Example 470, (4R,5S,6R)-6-((R)-1-(2-(1H-tetrazol-1-yl)acetamido)ethyl)-3-((3S,5S)-5-((2S,4S)-2-(aminomethyl)-4-hydroxypyrrolidine-1-carbonyl)pyrrolidin-3-ylthio)-4-methyl-7-oxo-1-azabicyclo[3.2.0]hept-2-ene-2-carboxylic acid]
2 µg/mL (≈ 3.47 µM) | 2 µg/mL (≈ 3.47 µM) | 4 µg/mL (≈ 6.95 µM) | 0.5 µg/mL (≈ 0.869 µM) |  |  |  |  | C[C@@H](NC(=O)Cn1cnnn1)[C@H]1C(=O)N2C(C(=O)O)=C(S[C@@H]3CN[C@H](C(=O)N4CCO[C@H]5CNC[C@H]54)C3)[C@H](C)[C@H]12 [Example 471, (4R,5S,6R)-6-((R)-1-(2-(1H-tetrazol-1-yl)acetamido)ethyl)-4-methyl-3-((3S,5S)-5-((4aR,7aS)-octahydropyrrolo[3,4-b][1,4]oxazine-4-carbonyl)pyrrolidin-3-ylthio)-7-oxo-1-azabicyclo[3.2.0]hept-2-ene-2-carboxylic acid]
4 µg/mL (≈ 7.3 µM) | 2 µg/mL (≈ 3.65 µM) | 2 µg/mL (≈ 3.65 µM) | 0.5 µg/mL (≈ 0.913 µM) |  |  |  |  | C[C@@H](NC(=O)Cn1cnnn1)[C@H]1C(=O)N2C(C(=O)O)=C(S[C@@H]3CN[C@H](C(=O)N4CC[C@@H](CN)C4)C3)[C@H](C)[C@H]12 [Example 472, (4R,5S,6R)-6-((R)-1-(2-(1H-tetrazol-1-yl)acetamido)ethyl)-3-((3S,5S)-5-((S)-3-(aminomethyl)pyrrolidine-1-carbonyl)pyrrolidin-3-ylthio)-4-methyl-7-oxo-1-azabicyclo[3.2.0]hept-2-ene-2-carboxylic acid]
4 µg/mL (≈ 7.11 µM) | 2 µg/mL (≈ 3.55 µM) | 4 µg/mL (≈ 7.11 µM) | 0.5 µg/mL (≈ 0.889 µM) |  |  |  |  | C[C@@H](NC(=O)Cn1cnnn1)[C@H]1C(=O)N2C(C(=O)O)=C(S[C@@H]3CN[C@H](C(=O)N4C[C@H](N)C[C@@H]4CN)C3)[C@H](C)[C@H]12 [Example 473, (4R,5S,6R)-6-((R)-1-(2-(1H-tetrazol-1-yl)acetamido)ethyl)-3-((3S,5S)-5-((2R,4R)-4-amino-2-(aminomethyl)pyrrolidine-1-carbonyl)pyrrolidin-3-ylthio)-4-methyl-7-oxo-1-azabicyclo[3.2.0]hept-2-ene-2-carboxylic acid]
4 µg/mL (≈ 7.1 µM) | 2 µg/mL (≈ 3.55 µM) | 2 µg/mL (≈ 3.55 µM) | 0.25 µg/mL (≈ 0.444 µM) |  |  |  |  | C[C@@H](NC(=O)Cn1cnnn1)[C@H]1C(=O)N2C(C(=O)O)=C(S[C@@H]3CN[C@H](C(=O)N4C[C@H](N)C[C@@H]4CO)C3)[C@H](C)[C@H]12 [Example 474, (4R,5S,6R)-6-((R)-1-(2-(1H-tetrazol-1-yl)acetamido)ethyl)-3-((3S,5S)-5-((2R,4R)-4-amino-2-(hydroxymethyl)pyrrolidine-1-carbonyl)pyrrolidin-3-ylthio)-4-methyl-7-oxo-1-azabicyclo[3.2.0]hept-2-ene-2-carboxylic acid]
4 µg/mL (≈ 6.92 µM) | 2 µg/mL (≈ 3.46 µM) | 2 µg/mL (≈ 3.46 µM) | 0.5 µg/mL (≈ 0.866 µM) |  |  |  |  | C[C@@H](NC(=O)Cn1cnnn1)[C@H]1C(=O)N2C(C(=O)O)=C(S[C@@H]3CN[C@H](C(=O)N4CCC(N)(CO)CC4)C3)[C@H](C)[C@H]12 [Example 475, (4R,5S,6R)-6-((R)-1-(2-(1H-tetrazol-1-yl)acetamido)ethyl)-3-((3S,5S)-5-(4-amino-4-(hydroxymethyl)piperidine-1-carbonyl)pyrrolidin-3-ylthio)-4-methyl-7-oxo-1-azabicyclo[3.2.0]hept-2-ene-2-carboxylic acid]
2 µg/mL (≈ 3.32 µM) | 2 µg/mL (≈ 3.32 µM) | 32 µg/mL (≈ 53.2 µM) | 1 µg/mL (≈ 1.66 µM) |  |  |  |  | C[C@@H](NC(=O)Cn1cnnn1)[C@H]1C(=O)N2C(C(=O)O)=C(S[C@@H]3CN[C@H](C(=O)N4CCCCC45CCNCC5)C3)[C@H](C)[C@H]12 [Example 476, (4R,5S,6R)-3-((3S,5S)-5-(1,9-diazaspiro[5.5]undecane1-carbonyl)pyrrolidin-3-ylthio)-6-((R)-1-(2-(1H-tetrazol-1-yl)acetamido)ethyl)-4-methyl-7-oxo-1-azabicyclo[3.2.0]hept-2-ene-2-carboxylic acid]
2 µg/mL (≈ 3.4 µM) | 2 µg/mL (≈ 3.4 µM) | 64 µg/mL (≈ 109 µM) | 0.5 µg/mL (≈ 0.851 µM) |  |  |  |  | C[C@@H](NC(=O)Cn1cnnn1)[C@H]1C(=O)N2C(C(=O)O)=C(S[C@@H]3CN[C@H](C(=O)N4CCCC45CCNCC5)C3)[C@H](C)[C@H]12 [Example 477, (4R,5S,6R)-3-((3S,5S)-5-(1,8-diazaspiro[4.5]decane-1-carbonyl)pyrrolidin-3-ylthio)-6-((R)-1-(2-(1H-tetrazol-1-yl)acetamido)ethyl)-4-methyl-7-oxo-1-azabicyclo[3.2.0]hept-2-ene-2-carboxylic acid]
2 µg/mL (≈ 3.47 µM) | 1 µg/mL (≈ 1.74 µM) | 2 µg/mL (≈ 3.47 µM) | 0.25 µg/mL (≈ 0.434 µM) |  |  |  |  | C[C@@H](NC(=O)Cn1cnnn1)[C@H]1C(=O)N2C(C(=O)O)=C(S[C@@H]3CN[C@H](C(=O)N4CCC(CCN)CC4)C3)[C@H](C)[C@H]12 [Example 480]
2 µg/mL (≈ 3.42 µM) | 2 µg/mL (≈ 3.42 µM) | 2 µg/mL (≈ 3.42 µM) | 0.125 µg/mL (≈ 0.213 µM) |  |  |  |  | C[C@@H](NC(=O)Cn1cnnn1)[C@H]1C(=O)N2C(C(=O)O)=C(S[C@@H]3CN[C@H](C(=O)N4CCn5c(cnc5N)C4)C3)[C@H](C)[C@H]12 [Example 481, (4R,5S,6R)-6-((R)-1-(2-(1H-tetrazol-1-yl)acetamido)ethyl)-3-((3S,5S)-5-(3-amino-5,6,7,8-tetrahydroimidazo[1,5-a]pyrazine-7-carbonyl)pyrrolidin-3-ylthio)-4-methyl-7-oxo-1-azabicyclo[3.2.0]hept-2-ene-2-carboxylic acid]
4 µg/mL (≈ 6.13 µM) | 4 µg/mL (≈ 6.13 µM) | 128 µg/mL (≈ 196 µM) | 0.5 µg/mL (≈ 0.766 µM) |  |  |  |  | C[C@@H](NC(=O)Cn1cnnn1)[C@H]1C(=O)N2C(C(=O)O)=C(S[C@@H]3CN[C@H](C(=O)Nc4cccc(C(=O)N5CCNCC5)c4)C3)[C@H](C)[C@H]12 [Example 483, (4R,5S,6R)-6-((R)-1-(2-(1H-tetrazol-1-yl)acetamido)ethyl)-4-methyl-7-oxo-3-((3S,5S)-5-(3-(piperazine-1-carbonyl)phenylcarbamoyl)pyrrolidin-3-ylthio)-1-azabicyclo[3.2.0]]
2 µg/mL (≈ 3.51 µM) | 4 µg/mL (≈ 7.02 µM) | 32 µg/mL (≈ 56.2 µM) | 1 µg/mL (≈ 1.76 µM) |  |  |  |  | C[C@@H](NC(=O)Cn1cnnn1)[C@H]1C(=O)N2C(C(=O)O)=C(S[C@@H]3CN[C@H](C(=O)Nc4ccc(CN)cc4)C3)[C@H](C)[C@H]12 [Example 484, (4R,5S,6R)-6-((R)-1-(2-(1H-tetrazol-1-yl)acetamido)ethyl)-3-((3S,5S)-5-(4-(aminomethyl)phenyl-carbamoyl)-pyrrolidin-3-ylthio)-4-methyl-7-oxo-1-azabicyclo[3.2.0]hept-2-ene-2-carboxylic acid]
8 µg/mL (≈ 14.2 µM) | 4 µg/mL (≈ 7.11 µM) | 4 µg/mL (≈ 7.11 µM) | 0.5 µg/mL (≈ 0.889 µM) |  |  |  |  | C[C@@H](NC(=O)Cn1cnnn1)[C@H]1C(=O)N2C(C(=O)O)=C(S[C@@H]3CN[C@H](C(=O)N4CCN[C@@H](CN)C4)C3)[C@H](C)[C@H]12 [Example 485, (4R,5S,6R)-6-((R)-1-(2-(1H-tetrazol-1-yl)acetamido)ethyl)-3-((3S,5S)-5-((S)-3-(aminomethyl)piperazine-1-carbonyl)pyrrolidin-3-ylthio)-4-methyl-7-oxo-1-azabicyclo[3.2.0]hept-2-ene-2-carboxylic acid]
2 µg/mL (≈ 3.69 µM) | 8 µg/mL (≈ 14.8 µM) | 64 µg/mL (≈ 118 µM) | 0.5 µg/mL (≈ 0.923 µM) |  |  |  |  | C[C@@H](NC(=O)C(F)F)[C@H]1C(=O)N2C(C(=O)O)=C(S[C@@H]3CN[C@H](C(=O)N4CCC5CNCCC54)C3)[C@H](C)[C@H]12 (stereo partly drawn) [Example 486, (4R,5S,6R)-6-((R)-1-(2,2-difluoroacetamido)ethyl)-4-methyl-3-((3S,5S)-5-(octahydro-1H-pyrrolo[3,2-c]pyridine-1-carbonyl)pyrrolidin-3-ylthio)-7-oxo-1-azabicyclo[3.2.0]hept-2-ene-2-carboxylic acid]
 |  |  |  | 2 µg/mL (≈ 3.4 µM) | 1 µg/mL (≈ 1.7 µM) | 8 µg/mL (≈ 13.6 µM) | 0.25 µg/mL (≈ 0.425 µM) | C[C@@H](NC(=O)Cn1cnnn1)[C@H]1C(=O)N2C(C(=O)O)=C(S[C@@H]3CN[C@H](C(=O)N4CCC5NCCCC5C4)C3)[C@H](C)[C@H]12 (stereo partly drawn) [Example 487, (4R,5S,6R)-6-((R)-1-(2-(1H-tetrazol-1-yl)acetamidin)ethyl)-3-((3S,5S)-5-(decahydro-1,6-naphthyridine-6-carbonyl)pyrrolidin-3-ylthio)-4-methyl-7-oxo-1-azabicyclo[3.2.0]hept-2-ene-2-carboxylic acid]
